Laboratory results: patent US6977180B2, “Biosensor” (Duke University, priority 2001, dated 2005)

What was measured:
[1] = solution ligand binding by intrinsic tryptophan fluorescence of the conjugates, glucose; conditions: read-out: fKd(glucose), dissociation constant of the protein free in solution
Description: FIGS. 4A–4D. Ligand-mediated electrochemical responses of four electroactive biomolecular assemblies. Inserts show the current responses observed at different ligand concentrations, measured by scanning the potential at a constant frequency. FIG. 4A. G174C-MBP (1 kHz; ^eKd(maltose)=4 μM; ^fKd(maltose)=1 μM), FIG. 4B. L255C-GBP (0.1 kHz; ^eKd(glucose)=2.0 μM; ^fKd(glucose)=0.4 μM), FIG. 4C. G174C-eZBP, a redesigned variant of MBP that binds zinc (1 kHz; ^eKd (zinc)=10 μM; ^fKd(zinc)=3 μM), FIG. 4D. E163C-QBP (0.16 kHz; ^eKd(glutamine)=1.0 μM; ^fKd(glutamine)=0.2 μM. Two binding constants are reported: ^eKd is dissociation constant of the assembly, determined electrochemically; ^fKd is the dissocation constant of the protein free in solution, determined by measuring changes in the intrinsic tryptophan fluorescence of the conjugates. (For every protein presented, the ligand-binding affinities determined electrochemically using a disk gold electrode are 2–5 fold weaker than those in solution. However, if a gold microelectrode prepared by flame annealing a gold wire (Creager et al, Anal. Chem. 70:4257 (1998)) is used instead of a gold disk electrode, the electrochemically determined affinities are similar to the solution affinities.
Protein purification and labeling. […]

[2] = electrochemical (ac voltammetry) ligand binding of protein-modified gold electrode, glucose; conditions: gold disk electrode, 0.1 kHz, read-out: eKd(glucose), dissociation constant of the assembly, determined electrochemically
Description: FIGS. 4A–4D. Ligand-mediated electrochemical responses of four electroactive biomolecular assemblies. Inserts show the current responses observed at different ligand concentrations, measured by scanning the potential at a constant frequency. FIG. 4A. G174C-MBP (1 kHz; ^eKd(maltose)=4 μM; ^fKd(maltose)=1 μM), FIG. 4B. L255C-GBP (0.1 kHz; ^eKd(glucose)=2.0 μM; ^fKd(glucose)=0.4 μM), FIG. 4C. G174C-eZBP, a redesigned variant of MBP that binds zinc (1 kHz; ^eKd (zinc)=10 μM; ^fKd(zinc)=3 μM), FIG. 4D. […]
Electrochemistry. […] Ac current baselines were calculated by linear extrapolation between equidistant potentials from the observed midpoint reduction potential (˜220 mV), as reported previously (Creager et al, Anal. Chem. 70:4257–4263 (1998)). […]

L255C-GBP: glucose-binding protein mutant L255C carrying the Ru(II) redox reporter
Kd [1]: 400 nM | Kd [2]: 2000 nM
